Measurements as given in the supplement of paper PMC9663587.

Key:
LEE011/Ribociclib [1] = compound: T1, CN(C)C(=O)c1cc2cnc(Nc3ccc(N4CCNCC4)cn3)nc2n1C1CCCC1 [LEE011/Ribociclib]
Taselisib/GDC0032 = compound: Cc1nc(-c2cn3c(n2)-c2ccc(-c4cnn(C(C)(C)C(N)=O)c4)cc2OCC3)n(C(C)C)n1 [Taselisib/GDC0032]
Volasertib/BI6727 = compound: CC[C@@H]1C(=O)N(C)c2cnc(Nc3ccc(C(=O)N[C@H]4CC[C@H](N5CCN(CC6CC6)CC5)CC4)cc3OC)nc2N1C(C)C [Volasertib/BI6727]
[2] = compound: CCN1CCN(Cc2ccc(Nc3ncc(F)c(-c4cc(F)c5nc(C)n(C(C)C)c5c4)n3)nc2)CC1
Tivantinib/ARQ197 = compound: O=C1NC(=O)[C@@H](c2cn3c4c(cccc24)CCC3)[C@@H]1c1c[nH]c2ccccc12 [Tivantinib/ARQ197]
Pictilisib/GDC0941 = compound: CS(=O)(=O)N1CCN(Cc2cc3nc(-c4cccc5[nH]ncc45)nc(N4CCOCC4)c3s2)CC1 [Pictilisib/GDC0941]
ABT-737 = compound: CN(C)CC[C@H](CSc1ccccc1)Nc1ccc(S(=O)(=O)NC(=O)c2ccc(N3CCN(Cc4ccccc4-c4ccc(Cl)cc4)CC3)cc2)cc1[N+](=O)[O-] [ABT-737]
Neratinib/HKI272 [3] = compound: T2, CCOc1cc2ncc(C#N)c(Nc3ccc(OCc4ccccn4)c(Cl)c3)c2cc1NC(=O)/C=C/CN(C)C [Neratinib/HKI272]
Ceritinib/LDK378 = compound: Cc1cc(Nc2ncc(Cl)c(Nc3ccccc3S(=O)(=O)C(C)C)n2)c(OC(C)C)cc1C1CCNCC1 [Ceritinib/LDK378]
BSJ-03-123 [4] = compound: T3, CC(=O)c1c(C)c2cnc(Nc3ccc(N4CCN(CCOCCOCCOCCNC(=O)COc5cccc6c5C(=O)N(C5CCC(=O)NC5=O)C6=O)CC4)cn3)nc2n(C2CCCC2)c1=O [BSJ-03-123]
INK128/MLN0128 = compound: CC(C)n1nc(-c2ccc3oc(N)nc3c2)c2c(N)ncnc21 [INK128/MLN0128]
THZ531 = compound: CN(C)C/C=C/C(=O)Nc1ccc(C(=O)N2CCC[C@@H](Nc3ncc(Cl)c(-c4c[nH]c5ccccc45)n3)C2)cc1 [THZ531]
Paclitaxel = compound: CC(=O)O[C@H]1C(=O)[C@@]2(C)[C@H]([C@H](OC(=O)c3ccccc3)[C@]3(O)C[C@H](OC(=O)[C@H](O)[C@@H](NC(=O)c4ccccc4)c4ccccc4)C(C)=C1C3(C)C)[C@]1(OC(C)=O)CO[C@@H]1C[C@@H]2O [Paclitaxel]
[5] = compound: COc1ccc2c(c1)[C@]1(C[C@H]1c1ccc3c(/C=C/c4ccc(CN5C[C@@H](C)O[C@@H](C)C5)cc4)n[nH]c3c1)C(=O)N2
LEE011/Ribociclib [6] = compound: T1, LEE011/Ribociclib; test: GR value, 72 h; higher = faster growth (1 = untreated, <0 = killing);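 also: breast cancer and non-malignant breast epithelial lines, nine half-log doses, viable cells counted by Hoechst and LIVE/DEAD dye imaging versus time-zero plates and DMSO controls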
[7] = compound: CCc1cnn2c(NCc3ccc[n+]([O-])c3)cc(N3CCCC[C@H]3CCO)nc12; test: as above
[8] = compound: CCN1CCN(Cc2ccc(Nc3ncc(F)c(-c4cc(F)c5nc(C)n(C(C)C)c5c4)n3)nc2)CC1; test: as above
YKL-5-124 = compound: C=CC(=O)Nc1ccc(C(=O)Nc2[nH]nc3c2CN(C(=O)N[C@H](CN(C)C)c2ccccc2)C3(C)C)cc1 [YKL-5-124]; test: as above
Neratinib/HKI272 [9] = compound: T2, Neratinib/HKI272; test: as above
BSJ-03-123 [10] = compound: T3, BSJ-03-123; test: as above
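For GR50, 72 h in this document: breast cancer and non-malignant breast epithelial cell lines, Deep Dye Drop or Dye Drop imaging, nine half-log doses, GR normalized to time-zero plates and DMSO-only controls.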

Cell Line: 184A1
- GR50, 72 h (LEE011/Ribociclib [1]): 0.285 µM
- GR50, 72 h (Taselisib/GDC0032): 0.192 µM
- GR50, 72 h (Volasertib/BI6727): 0.0124 µM
- GR50, 72 h [2]: 0.0256 µM
- GR50, 72 h (Tivantinib/ARQ197): 0.0644 µM
- GR50, 72 h (Pictilisib/GDC0941): 1.3 µM
- GR50, 72 h (ABT-737): 3.93 µM
- GR50, 72 h (Neratinib/HKI272 [3]): 0.0293 µM
- GR50, 72 h (Ceritinib/LDK378): 1 µM
- GR50, 72 h (BSJ-03-123 [4]): 0.00892 µM
- GR50, 72 h (INK128/MLN0128): 0.00892 µM
- GR50, 72 h (THZ531): 0.269 µM
- GR50, 72 h (Paclitaxel): 0.00313 µM
- GR50, 72 h [5]: 0.00198 µM
- GR value (LEE011/Ribociclib [6]; 0.001 µM): 0.846 GR
- GR value (LEE011/Ribociclib [6]; 0.003162 µM): 0.792 GR
- GR value (LEE011/Ribociclib [6]; 0.01 µM): 0.664 GR
- GR value (LEE011/Ribociclib [6]; 0.03162 µM): 0.633 GR
- GR value (LEE011/Ribociclib [6]; 0.1 µM): 0.549 GR
- GR value (LEE011/Ribociclib [6]; 0.3162 µM): 0.552 GR
- GR value (LEE011/Ribociclib [6]; 1 µM): 0.446 GR
- GR value (LEE011/Ribociclib [6]; 3.162 µM): 0.306 GR
- GR value (LEE011/Ribociclib [6]; 10 µM): 0.11 GR
- GR value ([7]; 0.0001 µM): 1.04 GR
- GR value ([7]; 0.0003162 µM): 1.05 GR
- GR value ([7]; 0.001 µM): 1.04 GR
- GR value ([7]; 0.003162 µM): 0.865 GR
- GR value ([7]; 0.01 µM): 0.401 GR
- GR value ([7]; 0.03162 µM): -0.275 GR
- GR value ([7]; 0.1 µM): -0.222 GR
- GR value ([7]; 0.3162 µM): -0.306 GR
- GR value ([7]; 1 µM): -0.346 GR
- GR value ([8]; 0.001 µM): 0.939 GR
- GR value ([8]; 0.003162 µM): 0.858 GR
- GR value ([8]; 0.01 µM): 0.69 GR
- GR value ([8]; 0.03162 µM): 0.413 GR
- GR value ([8]; 0.1 µM): 0.267 GR
- GR value ([8]; 0.3162 µM): 0.13 GR
- GR value ([8]; 1 µM): 0.0708 GR
- GR value ([8]; 3.162 µM): 0.0774 GR
- GR value ([8]; 10 µM): -0.105 GR
- GR value (YKL-5-124; 0.001 µM): 0.287 GR
- GR value (YKL-5-124; 0.003162 µM): 0.204 GR
- GR value (YKL-5-124; 0.01 µM): 0.116 GR
- GR value (YKL-5-124; 0.03162 µM): 0.07 GR
- GR value (YKL-5-124; 0.1 µM): 0.0439 GR
- GR value (YKL-5-124; 0.3162 µM): 0.0314 GR
- GR value (YKL-5-124; 1 µM): 0.0278 GR
- GR value (YKL-5-124; 3.162 µM): -0.0126 GR
- GR value (YKL-5-124; 10 µM): -0.0798 GR
- GR value (Neratinib/HKI272 [9]; 0.0003162 µM): 0.998 GR
- GR value (Neratinib/HKI272 [9]; 0.001 µM): 1 GR
- GR value (Neratinib/HKI272 [9]; 0.003162 µM): 1.02 GR
- GR value (Neratinib/HKI272 [9]; 0.01 µM): 0.853 GR
- GR value (Neratinib/HKI272 [9]; 0.03162 µM): 0.468 GR
- GR value (Neratinib/HKI272 [9]; 0.1 µM): 0.287 GR
- GR value (Neratinib/HKI272 [9]; 0.3162 µM): 0.219 GR
- GR value (Neratinib/HKI272 [9]; 1 µM): 0.198 GR
- GR value (Neratinib/HKI272 [9]; 3.162 µM): 0.166 GR
- GR value (BSJ-03-123 [10]; 0.001 µM): 0.716 GR
- GR value (BSJ-03-123 [10]; 0.003162 µM): 0.636 GR
- GR value (BSJ-03-123 [10]; 0.01 µM): 0.521 GR
- GR value (BSJ-03-123 [10]; 0.03162 µM): 0.296 GR
- GR value (BSJ-03-123 [10]; 0.1 µM): 0.243 GR
- GR value (BSJ-03-123 [10]; 0.3162 µM): 0.145 GR
- GR value (BSJ-03-123 [10]; 1 µM): 0.114 GR
- GR value (BSJ-03-123 [10]; 3.162 µM): 0.101 GR
- GR value (BSJ-03-123 [10]; 10 µM): -0.139 GR
